How the values were obtained:
[1] = molecular target: binding between NRF2 and KEAP1 (Homo sapiens (Human), UniProt Q14145); experiment: Binding assay: inhibition of binding between NRF2 and KEAP1 by BRET (NanoLuc-NRF2 and KEAP1-HaloTag cell lysates); conditions: Test Example 1-1; NRF2-KEAP1 BRET; N=2
Method: The inhibitory activity of each compound on the binding between NRF2 and KEAP1 was measured by bioluminescence resonance energy transfer (BRET) assay. A plasmid having human NRF2 (Original Clone ID: ha01449s1) sequence fused with NanoLuc (19 kDa, Promega) at the N-terminal was transduced into HCE-T cells (immortalized human corneal epithelial cells) using FuGENE HD (Promega). 48 hours after transduction, the cell lysate was collected and used as an NRF2-expressing cell lysate. A plasmid having human KEAP1 (Original Clone ID: cs00328) sequence fused with HaloTag (33 kDa, Promega) at the C-terminal was transduced into HCE-T cells using FuGENE HD (Promega). After 24 hours, HaloTag Nano BRET 618 Ligand (Promega) was added to the medium. The cell lysate cultured for 24 hours after the addition was used as a KEAP1-expressing cell lysate.
The NRF2-expressing cell lysate and the KEAP1-expressing cell lysate were adjusted so that the luminescence and fluorescence intensities per well were constant. Tables 1 and 2 show the formulation of each reaction solution.
Each test substance at a concentration 100 times higher than the test concentration was dissolved in dimethylsulfoxide for adjustment. 49 μL of KEAP1 solution was added to a 96-well polystyrene microplate (FALCON) to which 1 μL of each test substance solution was added, followed by incubation for 15 minutes. Then, 50 μL of NRF2 solution was added to the above solution, followed by incubation for 1 hour. To measure the binding between NRF2 and KEAP1, NanoBRET Nano-Glo Substrate (Promega) diluted with Opti-Mem (Thermo Fisher Scientific) was added, followed by shaking for 30 seconds. Then, luminescence and fluorescence were measured using the GloMax Discover System (Promega). A 495-nm short pass filter and a 600-nm long pass filter were respectively used to measure donor and acceptor emission values. A value obtained by dividing the acceptor emission value by the donor emission value was regarded as BRET value. A BRET value when the compound was not added, and a BRET value when the KEAP1 solution was not added were respectively used as binding rates of 100% and 0%, and the binding rate when the compound was added was calculated. Further, using this binding rate, the 50% binding inhibitory activity concentration (IC50) was calculated from the following formula. The test was performed at N=2.
IC50(M)=10^(LOG(A/B)×(50−C)/(D−C)+LOG(B)) • A: higher concentration out of 2 close concentrations across the inhibition rate of 50% • B: lower concentration out of 2 close concentrations across the inhibition rate of 50% • C: inhibition rate at B • D: inhibition rate at A
(§1) Compounds A1/A2, compounds B1/B2, compounds C1/C2, and compounds D1/D2 were used as test substances. Binding assay and reporter assay were performed as in Test Example 1-1 and Test Example 1-2.

NRF2 = experiment: Reporter assay: NRF2 activating action in HCE-T/ARE-Luc cells (ARE luciferase reporter gene assay); format: cell-based, human; conditions: Homo sapiens; Test Example 1-2; HCE-T/ARE-Luc cells, 24 hours; N=3
Method: The NRF2 activating action of the compounds on cells was measured by a reporter gene assay. pGL4.37[luc2P/ARE/Hygro] (Promega) was introduced into HCE-T cells using FuGENE HD. Cells that acquired drug resistance as a result of transduction were screened by culture in the presence of 50 μg/mL hygromycin, and a clone strain, HCE-T/ARE-Luc cells, was established.
HCE-T/ARE-Luc cells were cultured using DMEM/F12 medium containing 10 ng/mL hEGF, 5 μg/mL insulin, 5% FBS, and 40 μg/mL gentamicin. As the assay medium, a medium with the same composition as that for the culture was prepared using phenol red-free DMEM/F12 medium.
HCE-T/ARE-Luc cells were seeded in a 96-well polystyrene microplate (FALCON) with 10000 cells per well. The cells were incubated in a CO2 incubator at 37° C. for 16 hours to allow for cell adhesion. The test substance was dissolved in dimethylsulfoxide to prepare a solution at a concentration 1000 times higher than the test concentration. The cells were treated with the test substance diluted 1000-fold with the assay medium and cultured for 24 hours. When measuring the activity of the reporter, the medium containing the test substance was removed, and then a new medium and a substrate of ONE-GloEX Luciferase Assay System (Promega) were added. The plate was shaken for 1 minute and then allowed to stand at ordinary temperature for 10 minutes, and luminescence was detected using the GloMax Discover System (Promega).
The test was performed at N=3, and the 50% activation concentration of each test substance was calculated by creating a calibration curve between two concentrations across the luminescence incensity of 50%.
as §1

Sequence of binding between NRF2 and KEAP1 (Q14145 whole entry, the tested form may be a part): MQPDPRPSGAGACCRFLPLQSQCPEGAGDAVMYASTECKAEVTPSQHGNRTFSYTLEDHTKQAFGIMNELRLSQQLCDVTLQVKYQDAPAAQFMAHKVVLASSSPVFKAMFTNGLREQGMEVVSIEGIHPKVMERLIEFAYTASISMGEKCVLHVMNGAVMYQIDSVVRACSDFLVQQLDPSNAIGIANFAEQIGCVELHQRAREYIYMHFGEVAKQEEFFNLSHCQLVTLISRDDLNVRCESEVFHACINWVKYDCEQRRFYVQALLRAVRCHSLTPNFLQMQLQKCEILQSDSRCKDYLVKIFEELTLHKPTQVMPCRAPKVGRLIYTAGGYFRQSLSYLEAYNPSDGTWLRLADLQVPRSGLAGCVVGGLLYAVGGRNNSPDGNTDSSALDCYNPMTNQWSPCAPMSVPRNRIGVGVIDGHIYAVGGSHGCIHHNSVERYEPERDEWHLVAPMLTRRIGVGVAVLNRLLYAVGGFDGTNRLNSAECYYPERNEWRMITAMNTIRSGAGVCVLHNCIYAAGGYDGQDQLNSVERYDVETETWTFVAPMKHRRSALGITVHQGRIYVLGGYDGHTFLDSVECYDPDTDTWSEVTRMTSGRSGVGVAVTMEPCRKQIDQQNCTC

Row | Molecule | IC50 [1] [nM] | EC50 (NRF2) [nM]
1 | 3-[5-(cyclopropanecarbonyl)thiophen-2-yl]-3-(3-{[(R)-4-ethyl-1,1-dioxide-3,4-dihydro-2H-benzo[b][1,4,5]oxathiazepin-2-yl]methyl}-4-methylphenyl)propanoic acid [Compound 20] | 24 | –
2 | CC[C@@H]1CN(Cc2cc(C(c3ccc(C(C)=O)s3)C(C)(C)C(=O)O)ccc2C)S(=O)(=O)c2cnccc2O1 (stereo partly drawn) [Compound 48, 3-(5-acetylthiophen-2-yl)-3-(3-{[(R)-4-ethyl-1,1-dioxide-3,4-dihydro-2H-pyrido[4,3-b][1,4,5]oxathiazepin-2-yl]methyl}-4-methylphenyl)-2,2-dimethylpropanoic acid] | 0.39 | –
3 | CC[C@@H]1CN(Cc2cc(C(c3cc(F)c(C(C)=O)s3)C(C)C(=O)O)ccc2C)S(=O)(=O)c2cnccc2O1 (stereo partly drawn) [Compound 52, 3-(5-acetyl-4-fluorothiophen-2-yl)-3-(3-{[(R)-4-ethyl-1,1-dioxide-3,4-dihydro-2H-pyrido[4,3-b][1,4,5]oxathiazepin-2-yl]methyl}-4-methylphenyl)-2-methylpropanoic acid] | 0.27 | –
4 | CC[C@@H]1CN(Cc2cc(C(CC(=O)O)c3cc(C)c(C(C)=O)s3)ccc2C)S(=O)(=O)c2ccccc2O1 (stereo partly drawn) [Compound 7, 3-(5-acetyl-4-methylthiophen-2-yl)-3-(3-{[(R)-4-ethyl-1,1-dioxide-3,4-dihydro-2H-benzo[b][1,4,5]oxathiazepin-2-yl]methyl}-4-methylphenyl)propanoic acid] | 0.36 | –
5 | CC[C@@H]1CN(Cc2cc(C(c3ccc(C(C)=O)s3)C(C)(C)C(=O)O)ccc2C)S(=O)(=O)c2c(F)cccc2O1 (stereo partly drawn) [Compound 9, 3-(5-acetylthiophen-2-yl)-3-(3-{[(R)-4-ethyl-9-fluoro-1,1-dioxide-3,4-dihydro-2H-benzo[b][1,4,5]oxathiazepin-2-yl]methyl}-4-methylphenyl)-2,2-dimethylpropanoic acid] | 0.3 | –
6 | CC[C@@H]1CN(Cc2cc(C(c3cc(OC)c(C(C)=O)s3)C(C)C(=O)O)ccc2C)S(=O)(=O)c2cnccc2O1 (stereo partly drawn) [Compound 51, 3-(5-acetyl-4-methoxythiophen-2-yl)-3-(3-{[(R)-4-ethyl-1,1-dioxide-3,4-dihydro-2H-pyrido[4,3-b][1,4,5]oxathiazepin-2-yl]methyl}-4-methylphenyl)-2-methylpropanoic acid] | 0.41 | –
7 | CC[C@@H]1CN(Cc2cc(C(CC(=O)O)c3cc(F)c(C(C)=O)s3)ccc2C)S(=O)(=O)c2ccccc2O1 (stereo partly drawn) [Compound 8, 3-(5-acetyl-4-fluorothiophen-2-yl)-3-(3-{[(R)-4-ethyl-1,1-dioxide-3,4-dihydro-2H-benzo[b][1,4,5]oxathiazepin-2-yl]methyl}-4-methylphenyl)propanoic acid] | 0.36 | –
8 | CC[C@@H]1CN(Cc2cc(C(c3ccc(C(C)=O)s3)C(C)C(=O)O)ccc2C)S(=O)(=O)c2cnccc2O1 (stereo partly drawn) [Compound 16, 3-(5-acetylthiophen-2-yl)-3-(3-{[(R)-4-ethyl-1,1-dioxide-3,4-dihydro-2H-pyrido[4,3-b][1,4,5]oxathiazepin-2-yl]methyl}-4-methylphenyl)-2-methylpropanoic acid] | 0.2 | –
9 | CC[C@@H]1CN(Cc2cc(C(CC(=O)O)c3cc(C(C)=O)cs3)ccc2C)S(=O)(=O)c2ccccc2O1 (stereo partly drawn) [Compound 10, 3-(4-acetylthiophen-2-yl)-3-(3-{[(R)-4-ethyl-1,1-dioxide-3,4-dihydro-2H-benzo[b][1,4,5]oxathiazepin-2-yl]methyl}-4-methylphenyl)propanoic acid] | 0.3 | –
10 | CC(=O)c1ccc(C(c2ccc(C)c(CN3CC(CCOCc4ccccc4)Oc4ccccc4S3(=O)=O)c2)C(C)C(=O)O)s1 (stereo not shown) [Compound 13, 3-(5-acetylthiophen-2-yl)-3-[3-({4-[2-(benzyloxy)ethyl]-1,1-dioxide-3,4-dihydro-2H-benzo[b][1,4,5]oxathiazepin-2-yl}methyl)-4-methylphenyl]-2-methylpropanoic acid] | 0.5 | –
11 | CC[C@@H]1CN(Cc2cc(C(CC(=O)O)c3ccc(C(=O)NC)s3)ccc2C)S(=O)(=O)c2ccccc2O1 (stereo partly drawn) [Compound 21, 3-(3-{[(R)-4-ethyl-1,1-dioxide-3,4-dihydro-2H-benzo[b][1,4,5]oxathiazepin-2-yl]methyl}-4-methylphenyl)-3-[5-(methylcarbamoyl)thiophen-2-yl]propanoic acid] | 4.6 | –
12 | CC[C@@H]1CN(Cc2cc(C(c3cc(OC)c(C(C)=O)s3)C(C)(C)C(=O)O)ccc2C)S(=O)(=O)c2cnccc2O1 (stereo partly drawn) [Compound 50, 3-(5-acetyl-4-methoxythiophen-2-yl)-3-(3-{[(R)-4-ethyl-1,1-dioxide-3,4-dihydro-2H-pyrido[4,3-b][1,4,5]oxathiazepin-2-yl]methyl}-4-methylphenyl)-2,2-dimethylpropanoic acid] | 0.19 | –
13 | CC[C@@H]1CN(Cc2cc(C(c3cc(C)c(C(C)=O)s3)C(C)C(=O)O)ccc2C)S(=O)(=O)c2ccccc2O1 (stereo partly drawn) [Compound 2, 3-(5-acetyl-4-methylthiophen-2-yl)-3-(3-{[(R)-4-ethyl-1,1-dioxide-3,4-dihydro-2H-benzo[b][1,4,5]oxathiazepin-2-yl]methyl}-4-methylphenyl)-2-methylpropanoic acid] | 0.25 | 9
14 | CC[C@@H]1CN(Cc2cc(C(CC(=O)O)c3csc(C(=O)NC)c3)ccc2C)S(=O)(=O)c2ccccc2O1 (stereo partly drawn) [Compound 22, 3-(3-{[(R)-4-ethyl-1,1-dioxide-3,4-dihydro-2H-benzo[b][1,4,5]oxathiazepin-2-yl]methyl}-4-methylphenyl)-3-[5-(methylcarbamoyl)thiophen-3-yl]propanoic acid] | 6.1 | –
15 | CC[C@@H]1CN(Cc2cc(C(c3cc(OC)c(C(C)=O)s3)C(C)(C)C(=O)O)ccc2C)S(=O)(=O)c2ccccc2O1 (stereo partly drawn) [Compound 4, 3-(5-acetyl-4-methoxythiophen-2-yl)-3-(3-{[(R)-4-ethyl-1,1-dioxide-3,4-dihydro-2H-benzo[b][1,4,5]oxathiazepin-2-yl]methyl}-4-methylphenyl)-2,2-dimethylpropanoic acid] | 0.41 | –
16 | CC[C@@H]1CN(Cc2cc(C(CC(=O)O)c3ccc(C(N)=O)s3)ccc2C)S(=O)(=O)c2ccccc2O1 (stereo partly drawn) [Compound 23, 3-(5-carbamoylthiophen-2-yl)-3-(3-{[(R)-4-ethyl-1,1-dioxide-3,4-dihydro-2H-benzo[b][1,4,5]oxathiazepin-2-yl]methyl}-4-methylphenyl)propanoic acid] | 0.39 | –
17 | CC[C@@H]1CN(Cc2cc(C(c3cc(C(C)=O)cs3)C(C)C(=O)O)ccc2C)S(=O)(=O)c2ccccc2O1 (stereo partly drawn) [Compound 3, 3-(4-acetylthiophen-2-yl)-3-(3-{[(R)-4-ethyl-1,1-dioxide-3,4-dihydro-2H-benzo[b][1,4,5]oxathiazepin-2-yl]methyl}-4-methylphenyl)-2-methylpropanoic acid] | 0.17 | –
18 | CC[C@@H]1CN(Cc2cc(C(CC(=O)O)c3sc(C(C)=O)cc3C)ccc2C)S(=O)(=O)c2ccccc2O1 (stereo partly drawn) [Compound 14, 3-(5-acetyl-3-methylthiophen-2-yl)-3-(3-{[(R)-4-ethyl-1,1-dioxide-3,4-dihydro-2H-benzo[b][1,4,5]oxathiazepin-2-yl]methyl}-4-methylphenyl)propanoic acid] | 1.3 | –

Reference: US20240132519A1, “NRF2-ACTIVATING COMPOUND” (SENJU PHARMACEUTICAL CO., LTD., priority 2020, published 2024)
